Measured values reported in US7893037B2, “Pharmaceutical composition and process” (Roche Palo Alto LLC, priority 2007, dated 2011).

Assays:
[1] = bioavailability / absorption of nucleoside and prodrug; type: in vivo
hepatitis C virus (HCV) = details: patients infected with hepatitis C virus

Structure (SMILES)	absorption ([1]; in vivo)	reversion of prodrug in plasma ([1]; plasma)	viral load (hepatitis C virus (HCV))	bioavailability ([1]; in vivo)
CC(C)C(=O)OC[C@@]1(N=[N+]=[N-])O[C@@H](n2ccc(N)nc2=O)[C@H](OC(=O)C(C)C)[C@@H]1OC(=O)C(C)C.Cl [I, isobutyric acid (2R,3S,4R,5R)-5-(4-amino-2-oxo-2H-pyrimidin-1-yl)-2-azido-3,4-bis-iso-butyryloxy-tetrahydro-furan-2-ylmethyl ester; hydrochloride salt]	efficiently absorbed	revert to I in plasma	decrease the viral load	
[N-]=[N+]=NC1(CO)OC(n2ccc(N)nc2=O)C(O)C1O (stereo not shown) [II, 4-Amino-1-(5-azido-3,4-dihydroxy-5-hydroxymethyl-tetrahydro-furan-2-yl)-1H-pyrimidin-2-one, reference compound]				insufficient bioavailabilty
